One experiment deals with U373 cells. Briefly: Cellular imaging (videomicroscopy) of cultured U373 cells: antiproliferative class and global growth ratio. Conditions: for global growth ratio (GGR): GG treated cells/GG control cells, 72 h after drug addition, drug at its IC50 (MTT-test determined); for Anti proliferative class: cellular imaging of cultured U373 cells over three consecutive days. Further details: key to Anti proliferative class / anti-proliferative class-GGR: class I: actually cytostatic for 3 days (<10% of cell death at the 3rd day); class II: cyctostatic but becomes cytotoxic with <10% cell death on the 2nd day, and >20% of cell death on the 3rd day; class III: cytostatic but rapidly becomes cytotoxic with <10% cell death on the 1st day, >20% of cell death on the 2nd day and >50% of cell death on the 3rd day; class IV: cytotoxic (>50% of cell death on the first day). The format is cell-based, human. The source says:
The effects of the di- and tri-substituted beta-carboline derivatives as described herein can also be determined on cell proliferation, migration and morphology by means of a cellular imaging approach (Debeir et al., Cytometry 60:29-40, 2004; Debeir et al., IEEE Trans Med Imaging 24:697-711, 2005) either in, e.g., the human U373-MG glioma cell line, which is apoptosis-resistant but autophagy-sensitive (Lefranc F et al., Neurosurgery 2008) or in, e.g., the human A549 non-small-cell-lung cancer cell line, which is apoptosis-resistant and autophagy-resistant (Mijatovic T et al., Neoplasia 2006, May; 8(5):402-12).
[…] The experiments are conducted in quadruplicates.
The behaviour of the cells, in terms of morphology, growth and death are thus investigated. The effect on the overall growth is measured by counting the number of cells on the first (0 h) and the last image (72 h) of each film. The global growth ratio (GGR) is then deduced by dividing the number of cells on the last image by the number of cells on the first image. The ratio GGRtreated cells/GGRcontrol cells is further calculated thereby providing a value that describes the effect of compounds of the present invention on the overall cell growth.
The methodology is fully described and validated in Debeir et al., 2008, Exp Cell Res 314:2985-2998 and Mathieu et al., 2009, J Cell Mol Med, Feb. 20, 2009.

A further experiment deals with Hs683 glioma cells. Nature of the experiment: MTT test, overall cell growth, Hs683. The format is cell-based, human. Conditions: Homo sapiens, Hs 683, 72 hours of incubation. Here is the method:
(§1) MTT tests were performed in order to rapidly, i.e., within 5 days, measure the effect of the present compounds on the overall cell growth. The test measured the number of metabolically active living cells that were able to transform the yellow product 3-(4,5-dimethylthiazol-2-yl)-2,5-diphenyl tetrazolium bromide (herein referred as MTT) into the blue product formazan dye by mitochondrial reduction. The amount of formazan obtained at the end of the experiment, measured by means of a spectrophotometer, is directly proportional to the number of living cells. Optical density determination thus enabled a quantitative measurement of the effect of the investigated compounds as compared to the control condition (untreated cells) and/or to other reference compounds.
(§2) Five human cancer cell lines set forth in Table 3 were used in the MTT tests. These cancer cell lines cover two histological cancer types including glioma (Hs683, T98G, U373), and oesophageal (OE21, OE33) cancers. The U373 cell line is apoptosis-resistant but autophagy-sensitive.
(§3) To perform the assay, cells were allowed to grow in 96-well micro-wells with a flat bottom with an amount of 100 μl of cell suspension per well with 5,000 to 8,000 cells/well depending on the cell type used. Each cell line was seeded in its appropriate culture medium.
(§4) The detailed experimental procedure was as follows: after a 24-hour period of incubation at 37° C., the culture medium was replaced by 100 μl of fresh medium in which the tested compound was previously dissolved, at the following molar concentrations: 1×10^−8 M, 5×10^−8 M, 1×10^−7 M, 5×10^−7 M, 1×10^−6 M, 5×10^−6 M, 1×10^−5 M, 5×10^−5 M and 1×10^−4 M. Each experiment was performed in sestuplicate (6 times).
(§5) After 72 hours of incubation at 37° C. with (experimental conditions) or without (control condition) the compound to be tested, the medium was replaced by 100 μl MTT dissolved in RPMI (1640 without phenol red) at a concentration of 0.5 or 1 mg/ml. The micro-wells were subsequently incubated during 3 hours and a half at 37° C. and centrifuged at 1300 rpm during 10 minutes. MTT was removed and formazan crystals formed were dissolved in […]. The micro-wells were shaken for 5 minutes and read on a spectrophotometer at wavelengths of 570 nm (maximal formazan absorbance).
(§6) For each experimental condition, the mean optical density was calculated, allowing the determination of the percentage of remaining living cells in comparison to the control.
(§7) The origin of all the cell lines we used, along with their biological characteristics, and the validation procedures of the MTT colorimetric assay as employed here are fully detailed in Van Quaquebeke et al., 2005, J Med Chem 48:849-856; Ingrassia et al., 2009, J Med Chem 52:1100-1114; Mathieu et al., 2009, J Cell Mol Med, Feb. 20, 2009.

Experiment [1] has as its system OE21 oesophageal cancer cells. Nature of the experiment: MTT test, overall cell growth, OE21. In kind it is cell-based, human. Conditions: Homo sapiens, OE21, 72 hours of incubation. As for the experimental part: as §1, §2, §3, §4, §5, §6, §7
For orientation: Tetrazolium dyes change colour on reduction, which living cells bring about.

The subject of another experiment is T98G glioma cells. Nature of the experiment: MTT test, overall cell growth, T98G. In kind it is cell-based, human. Conditions: Homo sapiens, T98G, 72 hours of incubation. As for the experimental part:
as §1, §2, §3, §4, §5, §6, §7

Another experiment relates to U373 glioma cells. Nature of the experiment: MTT test, overall cell growth, U373. In kind it is cell-based, human. The conditions noted are these: Homo sapiens, U373 MG, 72 hours of incubation. As for the experimental part: as §1, §2, §3, §4, §5, §6, §7
Experiment [2] has as its system human cancer cell lines (U373, T98G, Hs683, OE21, OE33). Nature of the experiment: MTT test, mean over the cancer cell lines. The conditions noted are these: Homo sapiens. The format is cell-based. Here is the method:
as §1, §2, §3, §4, §5, §6, §7

Experiment [3] has as its system OE33 oesophageal cancer cells. Briefly: MTT test, overall cell growth, OE33. The conditions noted are these: Homo sapiens, OE33, 72 hours of incubation. The format is cell-based, human. Here is the method: as §1, §2, §3, §4, §5, §6, §7
[4] abbreviates: mean over the cancer cell lines, MTT test, read-out: IC50 Mean ± SEM.
[5] abbreviates: Glioma cell, MTT assay, submicromolar range, e.g. as low as, read-out: mean anti-proliferative effect on the glioma cell lines.

Where two headings read alike, the source gives them in different places.

The values below come from patent US9168247B2, “Beta carboline derivatives useful in the treatment of proliferative disorders” (FACULTES UNIVERSITAIRES NOTRE DAME DE LA PAIX, priority 2010, dated 2015).

With `Cc1c2c(cc[n+]1Cc1ccc(F)cc1)c1ccc(OCc3ccccc3)cc1n2Cc1ccccc1.[Br-]` [CV17, 1-methyl-2-(4-fluorobenzyl)-7-benzyloxy-9-benzyl-β-carbolin-2-ium bromide], the “global growth ratio (GGR)” value in the experiment on U373 cells was determined as 0.4. In addition, in the experiment on U373 cells, the Anti proliferative class entry is recorded as “I (class I: actually cytostatic for 3 days (<10% of cell death at the 3rd day))”. The IC50 in the experiment with Hs683 glioma cells was 1.6 ± 0.3 µM; in experiment [1], 0.61 ± 0.04 µM; in the experiment with T98G glioma cells, 0.56 ± 0.05 µM; with U373 glioma cells, 0.59 ± 0.06 µM; in experiment [2] (setting [4]), 1.2 ± 0.4 µM; in experiment [3] it was 2.4 ± 0.3 µM.
As to `Cc1c2c(cc[n+]1Cc1ccccc1F)c1ccc(OCc3ccccc3)cc1n2Cc1ccccc1.[Br-]` [CV18, 1-methyl-2-(2-fluorobenzyl)-7-benzyloxy-9-benzyl-β-carbolin-2-ium bromide], the “global growth ratio (GGR)” value in the experiment on U373 cells is given as 0.3. Further, the Anti proliferative class result with U373 cells is “I (class I: actually cytostatic for 3 days (<10% of cell death at the 3rd day))”. The IC50 with Hs683 glioma cells was 0.44 ± 0.04 µM; in experiment [1], 0.38 ± 0.02 µM; in the experiment with T98G glioma cells, 0.37 ± 0.01 µM; with U373 glioma cells, 0.5 ± 0.2 µM; in experiment [2] (setting [5]), 0.34 to 0.8 µM; in experiment [2] (setting [4]), 0.48 ± 0.06 µM. In experiment [3], this compound yielded an IC50 of 0.7 ± 0.08 µM.
On to `Cc1c2c(cc[n+]1Cc1ccccc1F)c1ccc(OCc3cccc(F)c3)cc1n2Cc1cccc(F)c1.[Br-]` [CV19, 1-methyl-2-(2-fluorobenzyl)-7-(3-fluorobenzyl)oxy-9-(3-fluorobenzyl)-β-carbolin-2-ium bromide], for which the “global growth ratio (GGR)” value with U373 cells is recorded as 0.2. For the same compound, the Anti proliferative class result in the experiment on U373 cells is “I (class I: actually cytostatic for 3 days (<10% of cell death at the 3rd day))”. The IC50 in the experiment on Hs683 glioma cells worked out at 2.2 ± 0.2 µM; in experiment [1] it was 1.4 ± 0.3 µM; in the experiment on T98G glioma cells, 0.7 ± 0.2 µM; in the experiment on U373 glioma cells, 0.6 ± 0.2 µM; in experiment [2] (setting [4]), 1.6 ± 0.4 µM; in experiment [3], 3 ± 0.2 µM.
On to `Cc1c2c(cc[n+]1Cc1ccc(F)cc1)c1ccc(OCc3cccc(F)c3)cc1n2Cc1cccc(F)c1.[Br-]` [CV22, 1-methyl-2-(4-fluorobenzyl)-7-(3-fluorobenzyl)oxy-9-(3-fluorobenzyl)-β-carbolin-2-ium bromide], for which the “global growth ratio (GGR)” value with U373 cells came to 0.5. Moreover, the Anti proliferative class entry in the experiment with U373 cells is recorded as “I (class I: actually cytostatic for 3 days (<10% of cell death at the 3rd day))”. Besides, the IC50 with Hs683 glioma cells was 4.5 ± 0.4 µM; in experiment [1] it was 2.9 ± 0.1 µM; with T98G glioma cells, 1.9 ± 0.3 µM; in the experiment on U373 glioma cells, 0.9 ± 0.1 µM; in experiment [2] (setting [4]), 2.7 ± 0.6 µM; in experiment [3], 3.4 ± 0.1 µM.
In the case of `Cc1c2c(cc[n+]1Cc1ccccc1)c1ccc(OCc3ccc(F)cc3)cc1n2Cc1ccc(F)cc1.[Br-]` [CV23, 1-methyl-2-benzyl-7-(4-fluorobenzyl)oxy-9-(4-fluorobenzyl)-β-carbolin-2-ium bromide], the “global growth ratio (GGR)” value in the experiment on U373 cells was 0.3. In addition, the Anti proliferative class result in the experiment with U373 cells was “I (class I: actually cytostatic for 3 days (<10% of cell death at the 3rd day))”. Moreover, the IC50 with Hs683 glioma cells was 0.9 ± 0.1 µM; in experiment [1], 0.5 ± 0.09 µM; in the experiment on T98G glioma cells, 0.4 ± 0.04 µM; in the experiment on U373 glioma cells it was 0.43 ± 0.07 µM; in experiment [2] (setting [5]), 0.34 to 0.8 µM; in experiment [2] (setting [4]), 0.8 ± 0.2 µM. In experiment [3], the IC50 was 1.4 ± 0.1 µM.
With `Cc1c2c(cc[n+]1Cc1ccccc1)c1ccc(OCC3CCCCC3)cc1n2CC1CCCCC1.[Br-]` [CV24, 1-methyl-2-benzyl-7-cyclohexylmethyloxy-9-cyclohexylmethyl-β-carbolin-2-ium bromide], the “global growth ratio (GGR)” value in the experiment with U373 cells is given as 0.3. In the experiment on U373 cells, the Anti proliferative class result is reported as “I (class I: actually cytostatic for 3 days (<10% of cell death at the 3rd day))”. Further, the IC50 with Hs683 glioma cells was 0.38 ± 0.009 µM; in experiment [1], 0.42 ± 0.008 µM; in the experiment on T98G glioma cells, 0.16 ± 0.03 µM; in the experiment with U373 glioma cells, 0.37 ± 0.02 µM; in experiment [2] (setting [5]), 0.34 to 0.8 µM; in experiment [2] (Table 4, mean over cell lines, read-out: IC50 μM growth inhibition (MTT test)) it was 0.34 µM. In addition, the IC50 in experiment [2] (setting [4]) amounted to 0.34 ± 0.05 µM; in experiment [3] it was 0.37 ± 0.01 µM.
In the case of `Cc1c2c(cc[n+]1Cc1ccccc1F)c1ccc(OCC3CCCCC3)cc1n2CC1CCCCC1.[Br-]` [CV26, 1-methyl-2-(2-fluorobenzyl)-7-cyclohexylmethyloxy-9-cyclohexylmethyl-β-carbolin-2-ium bromide], in the experiment on U373 cells, the “global growth ratio (GGR)” value was 0.2. In addition, in the experiment with U373 cells, the Anti proliferative class result is “I (class I: actually cytostatic for 3 days (<10% of cell death at the 3rd day))”. In addition, the IC50 in the experiment on Hs683 glioma cells was 0.25 ± 0.02 µM; in experiment [1] it was 0.35 ± 0.01 µM; in the experiment on T98G glioma cells it was 0.07 ± 0.008 µM; with U373 glioma cells, 1.42 ± 0.08 µM; in experiment [2] (setting [5]), 0.34 to 0.8 µM; in experiment [2] (setting [4]), 0.5 ± 0.2 µM. In addition, in experiment [3], the IC50 came to 0.35 ± 0.02 µM.
Take `Cc1nccc2c3ccc(O)cc3n(Cc3ccccc3)c12` [CV27, 1-methyl-7-hydroxy-9-benzyl-β-carboline]: the “global growth ratio (GGR)” value in the experiment with U373 cells came out at 0.2. Moreover, the Anti proliferative class entry in the experiment with U373 cells is “II”. Also, the IC50 amounted to 79 ± 4 µM in the experiment on Hs683 glioma cells; 35 ± 2 µM in experiment [1]; 81 ± 11 µM in the experiment with T98G glioma cells; 80 ± 2 µM in the experiment on U373 glioma cells; 62 ± 11 µM in experiment [2] (setting [4]); 35 ± 2 µM in experiment [3].
Consider `Cc1c2c(cc[n+]1Cc1ccc(F)cc1)c1ccc(OCc3ccc(F)cc3)cc1n2Cc1ccc(F)cc1.[Br-]` [CV29, 1-methyl-2-(4-fluorobenzyl)-7-(4-fluorobenzyl)oxy-9-(4-fluorobenzyl)-β-carbolin-2-ium bromide], for which the “global growth ratio (GGR)” value in the experiment on U373 cells is 0.1. The Anti proliferative class entry in the experiment with U373 cells is “IV (class IV: cytotoxic (>50% of cell death on the first day))”. Further, the IC50 with Hs683 glioma cells was found to be 13 ± 1 µM; in experiment [1], 3.7 ± 0.2 µM; in the experiment with T98G glioma cells, 14 ± 2 µM; in the experiment with U373 glioma cells, 2.9 ± 0.1 µM; in experiment [2] (setting [4]), 7 ± 3 µM; in experiment [3], 3.1 ± 0.3 µM.
